Data on four compounds can be found in DBAASP.

≈ marks a conversion by molar mass, not a printed value.

By MIC is commonly meant the lowest concentration that inhibits growth of the organism. A high value points to weaker potency.

Test systems include Salmonella typhimurium; Candida albicans; Staphylococcus aureus; Escherichia coli; Saccharomyces cerevisiae; Pseudomonas putida; Cryptococcus neoformans; Bacillus subtilis; Serratia marcescens; Bacillus subtilis SMY; Streptococcus mutans; Streptococcus pneumoniae; Vibrio cholerae PL91; Enterobacter cloacae; Klebsiella pneumoniae; Citrobacter sp.
What all share (test): ≥ marks a high value that may be exact or a test limit, other limits are often not marked, values filed in µg/mL are converted to µM
Experiment [1] deals with Escherichia coli ATCC 23716.
Experiment [2] has as its system Escherichia coli NCLM 2064.
In experiment [3] the test system is Bacillus cereus NCLM 2156.
For experiment [4], the system named is Staphylococcus aureus ATCC 25923.
Experiment [5] relates to Pseudomonas aeruginosa ATCC 10145.
For experiment [6], the system named is Acinetobacter baumannii ATCC 15308.
In experiment [7] the test system is Escherichia coli ATCC 25922.
The subject of experiment [8] is Pseudomonas aeruginosa ATCC 15442.
Experiment [9] concerns Klebsiella pneumoniae ATCC 700603.
Experiment [10] concerns Streptococcus pyogenes ATCC 19615.
In experiment [11] the test system is Staphylococcus aureus ATCC 29213.
The test system of experiment [12] is Serratia marcescens ATCC 21202.
The subject of experiment [13] is Pseudomonas aeruginosa ATCC 27853.
Experiment [14] has as its system Salmonella enterica subsp. enterica serovar Enteritidis ATCC 13076.
In experiment [15] the test system is Bacillus cereus ATCC 11778.

Regarding `CC(C)C[C@H](NC(=O)[C@H](CC(C)C)NC(=O)[C@H](CCCN=C(N)N)NC(=O)[C@H](Cc1cnc[nH]1)NC(=O)[C@@H](NC(=O)[C@H](CCCN=C(N)N)NC(=O)CNC(=O)[C@@H](NC(=O)[C@@H]1CCCN1C(=O)[C@@H](N)Cc1ccccc1)C(C)C)C(C)C)C(=O)N[C@@H](CCCN=C(N)N)C(=O)N[C@@H](CCCCN)C(=O)O` [FPVGRVHRLLRK], the MIC in the experiment on Salmonella typhimurium was 10.8 µM (≈ 16 µg/mL); against Candida albicans it was 21.7 µM (≈ 32 µg/mL); in experiment [1] it was at least 173 µM; in the experiment on Staphylococcus aureus, 21.7 µM (≈ 32 µg/mL); against Escherichia coli, 21.7 µM (≈ 32 µg/mL); in the experiment on Saccharomyces cerevisiae, at least 43.3 µM. For the same compound, the MIC was at least 43.3 µM in the experiment with Pseudomonas putida; at least 43.3 µM in the experiment with Cryptococcus neoformans; 21.7 µM (≈ 32 µg/mL) in the experiment on Bacillus subtilis; 21.7 µM (≈ 32 µg/mL) in the experiment on Serratia marcescens; at least 173 µM against Bacillus subtilis SMY; 21.7 µM (≈ 32 µg/mL) against Streptococcus mutans. Also, in the experiment with Streptococcus pneumoniae, the MIC amounted to 21.7 µM (≈ 32 µg/mL).

Consider `CC[C@H](C)[C@H](NC(=O)CN)C(=O)NCC(=O)N[C@@H](CO)C(=O)N[C@@H](CCSC)C(=O)N[C@@H](CC(C)C)C(=O)N[C@@H](CC(C)C)C(=O)NCC(=O)N[C@@H](CC(C)C)C(=O)N[C@@H](C)C(=O)N[C@@H](CCCCN)C(=O)N[C@@H](CC(N)=O)C(=O)N[C@H](C(=O)NCC(=O)N[C@@H](CCSC)C(=O)N[C@@H](CO)C(=O)N[C@@H](CC(C)C)C(=O)N[C@@H](CC(C)C)C(=O)N[C@@H](CC(N)=O)C(=O)N[C@@H](CCCCN)C(=O)N[C@@H](C)C(=O)N[C@@H](CCC(N)=O)C(=O)N[C@H]1CSSC[C@@H](C(=O)O)NC(=O)[C@H](CCCCN)NC(=O)CNC(=O)[C@H](CO)NC(=O)[C@H]([C@@H](C)CC)NC(=O)[C@H](CCCCN)NC1=O)C(C)C` [GIGSMLLGLAKNVGMSLLNKAQCKISGKC], for which the MIC is 13.6 µM (≈ 40 µg/mL) in experiment [2]; at least 51.1 µM against Vibrio cholerae PL91; at least 51.1 µM in [3]; over 51.1 µM in experiment [4]; at least 34.1 µM in [5].

Consider `CC[C@H](C)[C@H](NC(=O)[C@H](CC(C)C)NC(=O)CNC(=O)CNC(=O)[C@H](CC(C)C)NC(=O)[C@@H](N)Cc1ccccc1)C(=O)N[C@@H](CCCCN)C(=O)N1CCC[C@H]1C(=O)N[C@@H](Cc1c[nH]c2ccccc12)C(=O)N[C@@H](Cc1c[nH]c2ccccc12)C(=O)N1CCC[C@H]1C(=O)N[C@@H](Cc1c[nH]c2ccccc12)C(=O)N[C@@H](CCCN=C(N)N)C(=O)N[C@@H](CCCN=C(N)N)C(N)=O` [FLGGLIKPWWPWRR], for which the MIC against Staphylococcus aureus is 17.2 µM (≈ 31.2 µg/mL); in experiment [6], at least 69 µM; with Enterobacter cloacae it was at least 138 µM; against Klebsiella pneumoniae, over 138 µM; in experiment [7], 17.2 µM (≈ 31.2 µg/mL); against Citrobacter sp., at least 138 µM. For the same compound, the MIC in experiment [4] is 17.2 µM (≈ 31.2 µg/mL); in [8] it was at least 34.5 µM; against Streptococcus pneumoniae, 17.2 µM (≈ 31.2 µg/mL).

Consider `CC(C)C[C@H](NC(=O)[C@H](CC(C)C)NC(=O)[C@H](CC(=O)O)NC(=O)[C@H](CC(N)=O)NC(=O)[C@H](CC(C)C)NC(=O)[C@H](CC(C)C)NC(=O)[C@H](CC(N)=O)NC(=O)CNC(=O)[C@@H](NC(=O)[C@H](CC(C)C)NC(=O)[C@@H]1CCCN1C(=O)[C@H](CC(C)C)NC(=O)[C@@H](N)C(C)C)C(C)C)C(=O)NCC(=O)N[C@@H](CCCCN)C(=O)O` [VLPLVGNLLNDLLGK], for which the MIC in experiment [9] is over 63.4 µM; in experiment [10], at least 63.4 µM; in [11] it was over 63.4 µM; in experiment [12], at least 63.4 µM; in experiment [13], over 63.4 µM; in experiment [14], at least 63.4 µM. Besides, the MIC was over 63.4 µM in [7] and at least 63.4 µM in [15].
